# Experimental data reported in PubChem BioAssay AID1259408 (Genetic Toxicology Data Bank (GENE-TOX), 2018).
# Activity calls are given as the source filed them. No rule for the calls is given here.
# Test system: GENE-TOX genotoxicity assays, various organisms and cells
# Experiment: GENE-TOX mutagenicity studies
# Conditions: for call: Assay Type: In vivo carcinogenicity studies, Assay Code: CCG+
# [1] = Species/Cell Type: Salmonella typhimurium (one or more of the five standard strains: TA98, TA100, TA1535, TA1537, and TA1538), Assay Type: Histidine reverse gene mutation, Ames assay, Assay Code: SALT, Evaluation Type: Evaluation A (Pre-1980)
# [2] = Species/Cell Type: Allium cepa, Assay Type: Chromosome aberrations, Assay Code: ALC+, Evaluation Type: Evaluation A (Pre-1980)
# [3] = Species/Cell Type: Salmonella typhimurium (one or more of the five standard strains: TA98, TA100, TA1535, TA1537, and TA1538), Assay Type: Histidine reverse gene mutation, Ames assay, Assay Code: SAL+, Evaluation Type: Evaluation A (Pre-1980)
# [4] = Species/Cell Type: Drosophila melanogaster, Assay Type: Sex-linked recessive lethal gene mutation, Assay Code: SRL+, Evaluation Type: Evaluation A (Pre-1980)
# [5] = Species/Cell Type: Hordeum vulgare (barley), Assay Type: Chromosome aberrations, Assay Code: HOC+, Evaluation Type: Evaluation A (Pre-1980)
# [6] = Species/Cell Type: Neurospora crassa, Assay Type: Forward gene mutation, Assay Code: NEF+, Evaluation Type: Evaluation A (Pre-1980)
# [7] = Species/Cell Type: Neurospora crassa, Assay Type: Reverse gene mutation, Assay Code: NER+, Evaluation Type: Evaluation A (Pre-1980)
# [8] = Species/Cell Type: Nonhuman, Evaluation Type: Evaluation A (Pre-1980)
# [9] = Species/Cell Type: Saccharomyces cerevisiae, Assay Type: Mitotic recombination or gene conversion, Assay Code: YEC+, Evaluation Type: Evaluation A (Pre-1980)
# [10] = Species/Cell Type: Chinese hamster lung (V79) cells, Assay Type: Forward gene mutation at the HPRT or ouabain locus, Assay Code: V79+, Evaluation Type: Evaluation A (Pre-1980)
# [11] = Species/Cell Type: Salmonella typhimurium (one or more of the five standard strains: TA98, TA100, TA1535, TA1537, and TA1538), Assay Type: Histidine reverse gene mutation, Ames assay, Assay Code: SAL-, Evaluation Type: Evaluation A (Pre-1980)
smiles,measurement,setting,value
[Cl][Cr]([Cl])[Cl],mutagenic call,"Species/Cell Type: Bacillus subtilis (H17 vs M45), Assay Type: Rec-assay, spot test, DNA effects (bacterial DNA repair), Assay Code: REW-, Evaluation Type: Evaluation A (Pre-1980)",inactive; negative
same,mutagenic call,"Species/Cell Type: Human lymphocytes, Assay Type: Sister-chromatid exchange (SCE) in vitro, Assay Code: SCL-, Evaluation Type: Evaluation B (Post-1980)",inactive; negative
same,mutagenic call,"Species/Cell Type: Human, Assay Type: Sister-chromatid exchange (SCE) in vitro, Assay Code: SC1-, Evaluation Type: Evaluation B (Post-1980)",inactive; negative
same,mutagenic call,"Species/Cell Type: Mammalian oocytes or early embryo, Assay Type: Chromosome aberrations in vivo, Assay Code: CYO-, Evaluation Type: Evaluation A (Pre-1980)",inactive; negative
same,mutagenic call,"Species/Cell Type: Nonhuman, Assay Type: Sister-chromatid exchange (SCE) in vitro, Assay Code: SC2+, Evaluation Type: Evaluation B (Post-1980)",active; positive
same,mutagenic call,"Species/Cell Type: Nonhuman, Assay Type: Sister-chromatid exchange (SCE) in vitro, Assay Code: SC2T, Evaluation Type: Evaluation B (Post-1980)",no conclusion
same,mutagenic call,[1],no conclusion
O=C(OCC1=CCN2CC[C@@H](OC(=O)c3ccc4c(c3)OCO4)[C@@H]12)c1ccc2c(c1)OCO2,mutagenic call,[2],active; positive
O=C(OCC1=CCN2CC[C@@H](OC(=O)c3ccc([N+](=O)[O-])cc3)[C@@H]12)c1ccc([N+](=O)[O-])cc1,mutagenic call,[2],active; positive
Cc1ncc(COP(=O)(O)O)c(C=O)c1O,mutagenic call,"Species/Cell Type: Human lymphocytes, Assay Type: Sister-chromatid exchange (SCE) in vitro, Assay Code: SCLT, Evaluation Type: Evaluation B (Post-1980)",no conclusion
same,mutagenic call,"Species/Cell Type: Human, Assay Type: Sister-chromatid exchange (SCE) in vitro, Assay Code: SC1T, Evaluation Type: Evaluation B (Post-1980)",no conclusion
Nc1nc(N)nc(-c2ccc([N+](=O)[O-])o2)n1,mutagenic call,[3],active; positive
Cl[Se][Se]Cl,mutagenic call,"Species/Cell Type: Syrian hamster embryo (SA7/SHE) cells, Assay Type: Cell transformation, viral enhanced, Assay Code: CT7T, Evaluation Type: Evaluation A (Pre-1980)",no conclusion
NC(=O)C(=Cc1ccc([N+](=O)[O-])o1)c1ccccc1,mutagenic call,[3],active; positive
C1OC1C1CO1 (configuration not stated),mutagenic call,"Species/Cell Type: Aspergillus nidulans, Assay Type: Forward gene mutation, Assay Code: ASF+, Evaluation Type: Evaluation A (Pre-1980)",active; positive
same,mutagenic call,"Species/Cell Type: Aspergillus nidulans, Assay Type: Mitotic recombination, Assay Code: ASG+, Evaluation Type: Evaluation A (Pre-1980)",active; positive
same,mutagenic call,[4],active; positive
same,mutagenic call,"Species/Cell Type: Drosophila melanogaster, Sex: Male, Assay Type: Heritable translocation test, chromosome aberrations, Assay Code: DHT+, Evaluation Type: Evaluation A (Pre-1980)",active; positive
same,mutagenic call,"Species/Cell Type: Escherichia coli polA (W3119 vs P3478), Assay Type: Rec-assay, DNA effects (bacterial DNA repair), Assay Code: RE1+, Evaluation Type: Evaluation A (Pre-1980)",active; positive
same,mutagenic call,"Species/Cell Type: Fischer rat embryo (RLV/1706) cells, Assay Type: Cell transformation, viral enhanced, Assay Code: CTR+, Evaluation Type: Evaluation A (Pre-1980)",active; positive
same,mutagenic call,"Species/Cell Type: Glycine max (soybean), Assay Type: Gene mutation, Assay Code: GLM+, Evaluation Type: Evaluation A (Pre-1980)",active; positive
same,mutagenic call,[5],active; positive
same,mutagenic call,"Species/Cell Type: Human lymphocytes, Assay Type: Sister-chromatid exchange (SCE) in vitro, Assay Code: SCL+D, Dose Response: With dose response, Evaluation Type: Evaluation B (Post-1980)",active; positive
same,mutagenic call,"Species/Cell Type: Human, Assay Type: Sister-chromatid exchange (SCE) in vitro, Assay Code: SC1+D, Dose Response: With dose response, Evaluation Type: Evaluation B (Post-1980)",active; positive
same,mutagenic call,"Species/Cell Type: Mouse (BALB/c-3T3) cells, Assay Type: Cell transformation, Assay Code: CTB+D, Dose Response: With dose response, Evaluation Type: Evaluation A (Pre-1980)",active; positive
same,mutagenic call,[6],active; positive
same,mutagenic call,[7],active; positive
same,call,[8],active; positive
same,mutagenic call,"Species/Cell Type: Nonhuman, Assay Type: Sister-chromatid exchange (SCE) in vitro, Assay Code: SC2+D, Dose Response: With dose response, Evaluation Type: Evaluation A (Pre-1980)",active; positive
same,mutagenic call,"Species/Cell Type: Nonhuman, Assay Type: Sister-chromatid exchange (SCE) in vivo, Assay Code: SC3+D, Dose Response: With dose response, Evaluation Type: Evaluation B (Post-1980)",active; positive
same,mutagenic call,[9],active; positive
same,mutagenic call,"Species/Cell Type: Saccharomyces cerevisiae, Assay Type: Mitotic recombination or gene conversion, Assay Code: YEH+, Evaluation Type: Evaluation A (Pre-1980)",active; positive
same,mutagenic call,"Species/Cell Type: Saccharomyces cerevisiae, Assay Type: Reverse gene mutation, Assay Code: YER+, Evaluation Type: Evaluation A (Pre-1980)",active; positive
same,mutagenic call,[3],active; positive
same,mutagenic call,"Species/Cell Type: Salmonella typhimurium, Assay Type: Forward and reverse gene mutation, host-mediated assay, Assay Code: HMA+, Evaluation Type: Evaluation A (Pre-1980)",active; positive
same,mutagenic call,"Species/Cell Type: Schizosaccharomyces pombe, Assay Type: Reverse gene mutation, Assay Code: YEZ+, Evaluation Type: Evaluation A (Pre-1980)",active; positive
same,mutagenic call,"Species/Cell Type: Syrian hamster embryo (SHE) cells, Assay Type: Cell transformation, clonal assay, Assay Code: CTC+D, Dose Response: With dose response, Evaluation Type: Evaluation A (Pre-1980)",active; positive
same,mutagenic call,"Species/Cell Type: Vicia faba, Assay Type: Chromosome aberrations, Assay Code: VIC+D, Dose Response: With dose response, Evaluation Type: Evaluation A (Pre-1980)",active; positive
Cc1c2ccccc2c(C)c2c1ccc1cccc(C)c12,mutagenic call,"Species/Cell Type: Chinese hamster lung (V79) cells, Assay Type: Forward gene mutation at the HPRT or ouabain locus, Assay Code: V79-*, Activation: With metabolic activation, Evaluation Type: Evaluation A (Pre-1980)",inactive; negative
CC(=O)Nc1ccc([C@@H]2O[C@@H]2c2ccccc2)cc1,mutagenic call,[1],no conclusion
OCc1c2c(cc3ccccc13)-c1ccccc1C1OC21 (configuration not stated),mutagenic call,"Species/Cell Type: Mouse prostate cells, Assay Type: Cell transformation, Assay Code: CTM+, Evaluation Type: Evaluation A (Pre-1980)",active; positive
COC(=O)Nc1ncc(-c2ccc(Br)cc2)[nH]1,mutagenic call,"Species/Cell Type: Salmonella typhimurium, Assay Type: Forward and reverse gene mutation, host-mediated assay, Assay Code: HMAT, Evaluation Type: Evaluation A (Pre-1980)",no conclusion
COP(=O)(OC)OC,mutagenic call,[4],active; positive
same,mutagenic call,"Species/Cell Type: Escherichia coli polA (W3119 vs P3478), Assay Type: Rec-assay, DNA effects (bacterial DNA repair), Assay Code: RE1T, Evaluation Type: Evaluation A (Pre-1980)",no conclusion
same,mutagenic call,"Species/Cell Type: Human lymphocytes or leukocytes, Assay Type: Chromosome aberrations in vitro, Assay Code: CY7+D, Dose Response: With dose response, Evaluation Type: Evaluation A (Pre-1980)",active; positive
same,mutagenic call,"Species/Cell Type: Mammalian polychromatic erythrocytes, Assay Type: Micronucleus test, chromosome aberrations, Assay Code: MNT+, Evaluation Type: Evaluation A (Pre-1980)",active; positive
same,mutagenic call,"Species/Cell Type: Mouse, Sex: Male, Assay Type: Sperm morphology, Assay Code: SPI+, Evaluation Type: Evaluation A (Pre-1980)",active; positive
same,call,[8],active; positive
same,mutagenic call,"Species/Cell Type: Rodents, Sex: Male, Assay Type: Dominant lethal test, Assay Code: DLT+D, Dose Response: With dose response, Evaluation Type: Evaluation A (Pre-1980)",active; positive
same,mutagenic call,"Species/Cell Type: Tradescantia species, Assay Type: Gene mutation, Assay Code: TRM+D, Dose Response: With dose response, Evaluation Type: Evaluation A (Pre-1980)",active; positive
CNc1ccc(N(CCO)CCO)cc1[N+](=O)[O-],mutagenic call,"Species/Cell Type: Mammalian polychromatic erythrocytes, Assay Type: Micronucleus test, chromosome aberrations, Assay Code: MNTT, Evaluation Type: Evaluation B (Post-1980)",no conclusion
same,call,[8],active; positive
same,mutagenic call,"Species/Cell Type: Nonhuman, Assay Type: Sister-chromatid exchange (SCE) in vitro, Assay Code: SC2+D, Dose Response: With dose response, Evaluation Type: Evaluation B (Post-1980)",active; positive
Oc1cc2cc3ccccc3cc2c2ccccc12,mutagenic call,[10],active; positive
same,mutagenic call,"Species/Cell Type: Mouse prostate cells, Assay Type: Cell transformation, Assay Code: CTM-, Evaluation Type: Evaluation A (Pre-1980)",inactive; negative
same,mutagenic call,"Species/Cell Type: Syrian hamster embryo (SHE) cells, Assay Type: Cell transformation, clonal assay, Assay Code: CTC+, Evaluation Type: Evaluation A (Pre-1980)",active; positive
CC(C)NC(=O)/C=C/c1ccc([N+](=O)[O-])o1,mutagenic call,[10],active; positive
same,mutagenic call,[6],active; positive
same,mutagenic call,[7],active; positive
same,mutagenic call,[9],active; positive
same,mutagenic call,[3],active; positive
O=[N+]([O-])c1ccc(N2CCN(Cc3ccccc3)CC2)c2c1no[n+]2[O-],mutagenic call,[3],active; positive
Oc1ccc2cccnc2c1,mutagenic call,[11],inactive; negative
NC=O,mutagenic call,"Species/Cell Type: Fischer rat embryo (RLV/1706) cells, Assay Type: Cell transformation, viral enhanced, Assay Code: CTR-, Evaluation Type: Evaluation A (Pre-1980)",inactive; negative
same,mutagenic call,[5],active; positive
O=P(OCCCl)(OCCCl)OCCCl,mutagenic call,"Species/Cell Type: Mammalian polychromatic erythrocytes, Assay Type: Micronucleus test, chromosome aberrations, Assay Code: MNT+, Evaluation Type: Evaluation B (Post-1980)",active; positive
same,mutagenic call,[11],inactive; negative
